Results: publication PMC4398456, “Evidence for a Novel Mechanism of Antimicrobial Action of a Cyclic R-,W-Rich Hexapeptide” (PLoS ONE, 2015)
Converted amounts (≈) assume the structure as drawn. Residues, ends and D or L forms follow the SMILES beside them.

Columns and labels:
ITC binding to LUVs = settings: 25°C; for K 0 (hydrophobic partition coefficient): phosphate buffer pH 7.4, surface partition model; for ΔG°: calculated as -RT ln(55.5 M × K 0); for -TΔS°: from Gibbs-Helmholtz equation
From the text: Large unilamellar vesicles (LUVs) were used for isothermal titration calorimetry studies and prepared as described before. […] As CL potentially carries two negative charges it was applied at half POPG concentrations to give liposomes with identical surface charge. Subsequently, chloroform was evaporated under nitrogen stream and obtained lipid films were dried under high vacuum for several hours and rehydrated in phosphate buffer by thorough vortexing. The solution was heated 2–3 times in a water bath to 40°C to facilitate resuspension. POPE-LUVs were obtained after 35-fold extrusion through two stacked polycarbonate membranes (100 nm pore size) using a mini extruder (Avestin, Switzerland). The procedure gives vesicles with a diameter of 90–120 nm as determined with dynamic light scattering (DLS) performed on a Zetasizer Nano ZS ZEN 3600 (Malvern Instruments, UK). Large liposomes for dye release experiments were prepared with a solution of 80 mM calcein in 10 mM Tris buffer, 0.1 mM EDTA, pH 7.4 and treated to remove non-incorporated dye as described before.
High-sensitivity isothermal titration calorimetry (ITC) experiments to characterise peptide interaction with model membranes were performed at 25°C on a VP-ITC instrument (MicroCall, Malvern Instruments, UK). Binding data were generated as described before. Prior to use, solutions were gently degassed under vacuum. 10 μl aliquots of 5 to 10 mM lipid vesicles were titrated into a 40 μM peptide solution inside the calorimeter cell (1.4 ml) while the reaction mixture was continuously stirred at 307 rpm. Time intervals between injections were adjusted to 10 min which was sufficient for the heat signal to return to baseline level. Automated baseline adjustment and peak integration were accomplished with the public-domain software NITPIC [32].
Binding parameters, such as hydrophobic partition coefficient (K 0) and enthalpy of binding (ΔH°), were derived by applying a surface partition equilibrium under the specific condition that peptide adsorption is linearly related to the peptide concentration immediately above the membrane surface. This concentration in close proximity to the membrane is determined by electrostatic interactions and depends on the bulk concentration of peptide, peptide charge and membrane surface potential. Negatively charged lipid layers attract cationic peptides. Consequently, the membrane surface concentration is enhanced compared to that in the bulk solution. After binding of cationic peptides to an electrically neutral membrane it becomes positively charged which results in a repulsion of further peptides from the membrane surface. Using the Gouy—Chapman theory which accounts for electrostatic effects, it is possible to calculate the peptide surface concentration and to determine the partition coefficient K 0 [33]. Nonlinear least-squares data fitting was performed with Excel 2010 (Microsoft) using the Solver add-in (Frontline Systems). The Gibbs free energy was calculated according to ΔG° = -RT ln(55.5 M × K 0), where 55.5 M is the molar concentration of water in the aqueous phase. Finally, the entropic contribution to membrane partitioning,-TΔS°, was derived from the Gibbs-Helmholtz equation, ΔG° = ΔH°-TΔS°.

E. coli DH5α = settings: microdilution; reported before; cited from earlier work
mammalian cells = settings: cited from earlier work
From the text: The structure-activity-relationship of small cyclic R-,W-rich peptides is well characterised. […] With cationic charge and high amphipathicity the cyclic peptide features the structural determinants for membrane activity.

[1] = LUVs of POPC/CL (87.5/12.5 mol%)
[2] = LUVs of POPE/CL (87.5/12.5 mol%)

**Q.** With N=C(N)NCCC[C@@H]1NC(=O)[C@H](CCCNC(=N)N)NC(=O)[C@H](Cc2c[nH]c3ccccc23)NC(=O)[C@H](Cc2ccccc2)NC(=O)[C@H](Cc2c[nH]c3ccccc23)NC(=O)[C@H](CCCNC(=N)N)NC1=O [cWFW] (cyclo(FWRRRW)) as the compound, how does the “ΔH°” value (ITC binding to LUVs; 5 mM LUVs into 40 μM peptide, γ = 1) read?
**A.** Its value is -2.87 kcal/mol.

**Q.** What about the “K 0 (hydrophobic partition coefficient)” value (ITC binding to LUVs; 5 mM LUVs titrated into 40 μM peptide, γ = 1) of the same compound?
**A.** The value was 5.5e+07 M⁻¹.

**Q.** And the “ΔH°” value (ITC binding to LUVs; 10 mM LUVs into 40 μM peptide, γ = 0.5)?
**A.** Its value is -1.22 kcal/mol.

**Q.** What about the “K 0 (hydrophobic partition coefficient)” value (ITC binding to LUVs; 10 mM LUVs titrated into 40 μM peptide, γ = 0.5) of the same compound?
**A.** Its value is 3.7e+06 M⁻¹.

**Q.** And the “K 0 (hydrophobic partition coefficient)” value (ITC binding to LUVs; 5 to 10 mM LUVs titrated into 40 μM peptide, γ = 0.5)?
**A.** The value was 1.4e+06 M⁻¹.

**Q.** And the “ΔH°” value (ITC binding to LUVs; LUVs into 40 μM peptide, γ = 0.5)?
**A.** Its value is -5.81 kcal/mol.

**Q.** And the “ΔG°” value (ITC binding to LUVs; [1])?
**A.** The value was -10.8 kcal/mol.

**Q.** And the “ΔG°” value (ITC binding to LUVs; [2])?
**A.** The value was -12.9 kcal/mol.

**Q.** And the “ΔG°” value (ITC binding to LUVs; LUVs of POPE/POPG (75/25 mol%))?
**A.** The value was -11.3 kcal/mol.

**Q.** What about the “-TΔS°” value (ITC binding to LUVs; [1]) of the same compound?
**A.** The value was -4.95 kcal/mol.

**Q.** And the “-TΔS°” value (ITC binding to LUVs; [2])?
**A.** Its value is -10.1 kcal/mol.

**Q.** And the “-TΔS°” value (ITC binding to LUVs; LUVs of POPE/POPG (75/25 mol%))?
**A.** Its value is -10.1 kcal/mol.

**Q.** And the “MIC E. coli DH5α” value (E. coli DH5α)?
**A.** Its value is 3 µM (≈ 2.96 µg/mL).

**Q.** What about the “toxicity towards mammalian cells” value (mammalian cells) of the same compound?
**A.** The value was “no toxicity”.
